Data on 35 compounds can be found in ChEMBL document CHEMBL5316264, “Identification of N- and C-3-Modified Laudanosoline Derivatives as Novel Influenza PAN Endonuclease Inhibitors” (J Med Chem, 2023).

The source made the active and inactive calls. The rule behind the calls is not given here.

Series [1] is described as follows: Cytotoxicity against MDCK cells incubated for 48 hrs by MTT assay. The class given is toxicity, cell-based, Canis lupus familiaris. Particulars: dog. In general terms: Tetrazolium assays rely on reduction of a dye to a coloured formazan, in cell work by metabolically active cells.
Another series in a line: in vitro. Particulars: dog, MDCK cells.
Series [2] concerns Influenza A virus. The series can be described thus: Antiviral activity against influenza A virus H5N1(A/Duck/Guangdong/212/2004) infected in MDCK cells assessed as inhibition of cytopathic effect incubated for 48 hrs by MTT assay. In kind it is functional, organism-based.
Series [3] concerns Influenza A virus. Put plainly: Antiviral activity against influenza A virus H3N2(JX/312) infected in MDCK cells assessed as inhibition of cytopathic effect incubated for 48 hrs by MTT assay. In kind it is functional, organism-based.
Series [4] deals with Influenza A virus. The series can be described thus: Antiviral activity against influenza A virus Flu (B/Lee/1940) infected in MDCK cells assessed as inhibition of cytopathic effect incubated for 48 hrs by MTT assay. The class given is functional, organism-based.
The test system of series [5] is Influenza A virus. The series can be described thus: Antiviral activity against Influenza A A/WSN/33 (H1N1) infected in BALB/c mouse at 10 mg/kg/day, ip administered twice daily for 5 days starting from 1 hrs post infection and measured daily for 14 days. The class given is functional, organism-based. The conditions noted are these: time 5.0 day.
A short description of series [6]: Metabolic stability in mouse liver microsomes assessed as intrinsic clearance at 10 uM incubated for 5 mins in presence of NADPH by LC-MS/MS analysis. The class given is ADME, Microsome. Particulars: read-out: CLH. (In general: Microsomes from liver hold many membrane-bound enzymes, among them those of drug oxidation.)
Series [7] is described as follows: Metabolic stability in mouse liver microsomes assessed as half life at 10 uM incubated for 5 mins in presence of NADPH by LC-MS/MS analysis. The class given is ADME, Microsome.
The nature of series [8]: Metabolic stability in mouse plasma assessed as compound remaining measured after 120 mins by LC-MS/MS analysis. Particulars: read-out: Stability. The class given is ADME, cell-free.
Series [9] in a line: Metabolic stability in mouse plasma assessed as compound remaining measured after 60 mins by LC-MS/MS analysis. In kind it is ADME, cell-free. The conditions noted are these: read-out: Stability.
The nature of series [10]: Metabolic stability in mouse plasma assessed as compound remaining measured after 90 mins by LC-MS/MS analysis. In kind it is ADME, cell-free. Particulars: read-out: Stability.
Series [11] is described as follows: Metabolic stability in mouse plasma assessed as compound remaining measured after 30 mins by LC-MS/MS analysis. The class given is ADME, cell-free. The conditions noted are these: read-out: Stability.
Series [12] deals with Polymerase acidic protein (Influenza A virus (A/Puerto Rico/8/1934(H1N1))) (UniProt P03433). The series can be described thus: Inhibition of Influenza A virus N-terminal domain of PA endonuclease using 6FAM-TGGCAATATCAGCTCCACA-MGBNFQ as fluorescent substrate by FRET analysis.

On to `O=C(O[C@@H]1Cc2c(O)cc(O)cc2O[C@@H]1c1cc(O)c(O)c(O)c1)c1cc(O)c(O)c(O)c1` [EPIGALOCATECHIN GALLATE], for which the cytotoxic concentration (CC50) (in general, the concentration at which the toxic effect on the cells reaches its halfway point) at 48 h in [1] was over 100 µM. For the same compound, in “in vitro”, the selectivity ratio was over 3.3.
For the compound `O=C(Nc1ccncc1)[C@@H]1Cc2cc(O)c(O)cc2[C@H](Cc2ccc(O)c(O)c2)N1C(=O)c1ccccc1Cl`, in series [1], the CC50 at 48 h stood at 203 µM. For the same compound, the concentration giving a half-maximal response (EC50) – broadly, the concentration needed to bring the measured effect to its halfway point – is 2.85 µM in the series on Influenza A virus [2], 0.95 µM in the series on Influenza A virus [3] and 0.82 µM in the series on Influenza A virus [4]. Further, the selectivity ratio in “in vitro” came out at 101.
Take `C=CC(=O)N1[C@H](C(=O)OC)Cc2cc(O)c(O)cc2[C@@H]1Cc1ccc(O)c(O)c1`: the CC50 at 48 h in series [1] stood at 47.5 µM. Also, the selectivity ratio in “in vitro” was 8.9.
For the compound `COC(=O)[C@@H]1Cc2cc(O)c(O)cc2[C@H](Cc2ccc(O)c(O)c2)N1C(=O)C1CCCCC1`, the CC50 at 48 h in series [1] was determined as 64.5 µM. Besides, the selectivity ratio in “in vitro” was found to be 3.4.
In turn, `COC(=O)[C@@H]1Cc2cc(O)c(O)cc2[C@H](Cc2ccc(O)c(O)c2)N1C(=O)c1ccc(Cl)cc1Cl` returned a CC50 at 48 h in [1] of over 101 µM. Also, the selectivity ratio in the series “in vitro” was over 21.2.
In [1], `COC(=O)[C@@H]1Cc2cc(O)c(O)cc2[C@H](Cc2ccc(O)c(O)c2)N1C(=O)c1c(Cl)cccc1Cl` returned a CC50 at 48 h of 81.6 µM. Moreover, the selectivity ratio in “in vitro” was found to be 15.5.
The like results for `O=C(Nc1ccccc1)[C@@H]1Cc2cc(O)c(O)cc2[C@H](Cc2ccc(O)c(O)c2)N1C(=O)c1ccccc1Cl` were, in that order, 169 µM and 10.8.
The like results for `COC(=O)[C@@H]1Cc2cc(O)c(O)cc2[C@H](Cc2ccc(O)c(O)c2)N1C(=O)c1ccc(C(F)(F)F)cc1` were, in that order, over 101 µM and over 10.8.
The like results for `CCCCCCC(=O)N1[C@H](C(=O)OC)Cc2cc(O)c(O)cc2[C@@H]1Cc1ccc(O)c(O)c1` were, in that order, 84.3 µM and 5.1.
The compound `COC(=O)[C@@H]1Cc2cc(O)c(O)cc2[C@H](Cc2ccc(O)c(O)c2)N1C(=O)c1ccc(Br)cc1` returned a CC50 at 48 h in series [1] of over 101 µM. In addition, in the series “in vitro”, the selectivity ratio is over 25.5.
With `COC(=O)[C@@H]1Cc2cc(O)c(O)cc2[C@H](Cc2ccc(O)c(O)c2)N1C(=O)c1cccc([N+](=O)[O-])c1`, in series [1], the CC50 at 48 h is over 101 µM. Further, the selectivity ratio in “in vitro” is over 5.3.
In the case of `O=C(O)[C@@H]1Cc2cc(O)c(O)cc2[C@H](Cc2ccc(O)c(O)c2)N1C(=O)c1ccccc1Cl`, the midpoint of cytotoxicity in series [1], the CC50 at 48 h, lay at 103 µM. Also, the selectivity ratio in “in vitro” was 5.4.
In series [1], `CN1CCc2cc(O)c(O)cc2C1Cc1ccc(O)c(O)c1` (racemic) showed a CC50 at 48 h of over 200 µM. For the same compound, the selectivity ratio in the series “in vitro” was over 5.4.
Compound `O=C1c2c(O)c(=O)ccn2N([C@@H]2c3ccccc3SCc3c2ccc(F)c3F)[C@@H]2COCCN12` [BALOXAVIR] returned a 50% cytotoxic concentration (CC50) at 48 h in [1] of over 100 µM. Moreover, the selectivity ratio in “in vitro” is over 11700.
In series [1], `COC(=O)CNC(=O)[C@@H]1Cc2cc(O)c(O)cc2[C@H](Cc2ccc(O)c(O)c2)N1C(=O)c1ccccc1Cl` came in with a CC50 at 48 h of 143 µM. Moreover, the selectivity ratio in “in vitro” came to 36.8.
On to `CCC(CC)[C@H](NC(C)=O)[C@@H]1[C@H](O)[C@@H](C(=O)O)C[C@H]1NC(=N)N` [PERAMIVIR ANHYDROUS], for which, in the series with Influenza A virus [5], the outcome was Active. Also, in [1], the CC50 at 48 h was over 101 µM. For the same compound, the EC50 in the series with Influenza A virus [2] was determined as 1.06 µM; with Influenza A virus [3], 215 µM; with Influenza A virus [4], 1.66 µM. For the same compound, the selectivity ratio in “in vitro” was over 19.2.
In series [1], `COC(=O)[C@@H]1Cc2cc(O)c(O)cc2[C@H](Cc2ccc(O)c(O)c2)N1C(=O)c1ccc(F)cc1` registered a 50% cytotoxic concentration (CC50) at 48 h of over 101 µM. In “in vitro”, the selectivity ratio was over 33.6.
In the case of `CCOC(=O)[C@@H]1Cc2cc(O)c(O)cc2[C@H](Cc2ccc(O)c(O)c2)N1C(=O)c1ccccc1Cl`, half-maximal cytotoxicity in [1] (CC50 at 48 h) was put at 98.5 µM. In the series “in vitro”, the selectivity ratio came out at 30.7.
For the compound `COC(=O)[C@@H]1Cc2cc(O)c(O)cc2[C@H](Cc2ccc(O)c(O)c2)N1C(=O)c1ccccc1Cl`, the 50% cytotoxic concentration (CC50) at 48 h in [1] is 89.8 µM. Also, the 50% effective concentration (EC50) worked out at 2.36 µM in the series on Influenza A virus [2], 0.92 µM in the series with Influenza A virus [3] and 0.86 µM with Influenza A virus [4]. In “in vitro”, the selectivity ratio amounted to 49.3.
`CN(C)C(=O)[C@@H]1Cc2cc(O)c(O)cc2[C@H](Cc2ccc(O)c(O)c2)N1C(=O)c1ccccc1Cl` had a cytotoxic concentration (CC50) at 48 h in series [1] of 137 µM. The selectivity ratio in “in vitro” worked out at 10.8.
In series [1], `COC(=O)[C@@H]1Cc2cc(O)c(O)cc2[C@H](Cc2ccc(O)c(O)c2)N1C(=O)c1cccc(Cl)c1` had a 50% cytotoxic concentration (CC50) at 48 h of 61.1 µM. Also, in the series “in vitro”, the selectivity ratio worked out at 25.3.
Turning to `COC(=O)[C@@H]1Cc2cc(O)c(O)cc2[C@H](Cc2ccc(O)c(O)c2)N1C(=O)c1cccc(Br)c1`, the cytotoxic concentration (CC50) at 48 h in series [1] is over 101 µM. In addition, the selectivity ratio in the series “in vitro” is over 26.4.
Turning to `O=C(O)Cc1ccccc1Nc1c(Cl)cccc1Cl` [DICLOFENAC], in series [6], the microsomal CLint at 10 µM worked out at 112 µL/min/mg. Further, the half-life – broadly, how long it takes for the measured level to halve – at 10 µM in series [7] turned out to be 12.1 min.
With `COC(=O)[C@@H]1Cc2cc(O)c(O)cc2[C@H](Cc2ccc(O)c(O)c2)N1C(=O)c1ccccc1F`, in series [1], the CC50 at 48 h worked out at 82.3 µM. In “in vitro”, the selectivity ratio was 29.7.
In series [1], `COC(=O)[C@@H]1Cc2cc(O)c(O)cc2[C@H](Cc2ccc(O)c(O)c2)N1C(=O)c1cccc(C(F)(F)F)c1` displayed a CC50 at 48 h of over 101 µM. In addition, in “in vitro”, the selectivity ratio is over 11.8.
`COC(=O)[C@@H]1Cc2cc(O)c(O)cc2[C@H](Cc2ccc(O)c(O)c2)N1C(=O)c1ccc(Cl)cc1` had a half-maximal cytotoxic concentration (CC50) at 48 h in [1] of 87.4 µM. For the same compound, in the series “in vitro”, the selectivity ratio was 34.5.
The like results for `COC(=O)[C@@H]1Cc2cc(O)c(O)cc2[C@H](Cc2ccc(O)c(O)c2)N1C(=O)c1cccc(F)c1` were, in that order, 73.7 µM and 25.8.
As for `COC(=O)[C@@H]1Cc2cc(O)c(O)cc2[C@H](Cc2ccc(O)c(O)c2)N1C(=O)c1ccc2ccccc2c1`, the CC50 at 48 h in [1] came out at 45.2 µM. The selectivity ratio in “in vitro” was 15.6.
In turn, `O=C(Oc1ccccc1)[C@@H]1Cc2cc(O)c(O)cc2[C@H](Cc2ccc(O)c(O)c2)N1C(=O)c1ccccc1Cl` returned a cytotoxic concentration (CC50) at 48 h in [1] of 70.3 µM. In “in vitro”, the selectivity ratio was 52.1.
As for `CC(C)[N+](C)(CCOC(=O)C1c2ccccc2Oc2ccccc21)C(C)C` [PROPANTHELINE BROMIDE], the remaining at 2 h in [8] is 2%. In series [9], the remaining at 1 h was determined as 18.2%. Further, the remaining at 1.5 h in series [10] is 10.3%. The remaining at 0.5 h in [11] was 45.5%.
`COC(=O)[C@@H]1Cc2cc(O)c(O)cc2[C@H](Cc2ccc(O)c(O)c2)N1C(=O)c1ccccc1`: the cytotoxic concentration (CC50) at 48 h in [1] is 157 µM. The inhibition entry in [12] is “Dose-Dependent Effect”. Further, in “in vitro”, the selectivity ratio was found to be 29.7.
Take `COC(=O)COC(=O)[C@@H]1Cc2cc(O)c(O)cc2[C@H](Cc2ccc(O)c(O)c2)N1C(=O)c1ccccc1Cl`: in [1], the half-maximal cytotoxic concentration (CC50) at 48 h turned out to be 163 µM. In addition, the selectivity ratio in the series “in vitro” came to 67.1.
The like results for `COC(=O)[C@@H]1Cc2cc(O)c(O)cc2[C@H](Cc2ccc(O)c(O)c2)N1C(=O)c1ccccc1Br` were, in that order, over 101 µM and over 29.5.
`COC(=O)[C@@H]1Cc2cc(O)c(O)cc2[C@H](Cc2ccc(O)c(O)c2)N1C(=O)c1ccccc1C(F)(F)F` registered a CC50 at 48 h in series [1] of over 101 µM. In the series “in vitro”, the selectivity ratio was over 11.1.
The compound `COC(=O)[C@@H]1Cc2cc(O)c(O)cc2[C@H](Cc2ccc(O)c(O)c2)N1C(=O)c1ccccc1[N+](=O)[O-]` came in with a CC50 at 48 h in [1] of over 101 µM. Further, the selectivity ratio in “in vitro” was over 9.2.
